These compounds were tested against T1, CDK2/Cyclin E complex (Homo sapiens, UniProt P24941) (assay: CDK2/Cyclin E fluorescence-based microfluidic mobility shift assay (CDK2 Biochemical Caliper Assay)). Details: read-out: Biochemical CDK2/CyclinE Caliper IC50.
T1 construct: purchased Eurofins 14-475
Procedure: Compounds of the present disclosure were tested in a CDK2/Cyclin E fluorescence-based microfluidic mobility shift assay (PerkinElmer).
The active wild type CDK2/Cyclin E complex was purchased from Eurofins (14-475). Compound stocks were prepared in DMSO and were serially diluted into 11 concentrations by 3-fold dilution. […] Compounds were incubated in the presence of CDK2/Cyclin E complex and ATP for 30 minutes at room temperature. Catalytic reaction was initiated with the addition of 5 uL of a 4× peptide solution containing 6 uM fluorescently label substrate peptide, FL Peptide 18 (aa sequence 5-FAM-QSPKKG, PerkinElmer, 760362) in 1× reaction buffer.
The final reaction components were 0.1 nM CDK2/Cyclin E, 2000 uM ATP and 1.5 uM FL Peptide 18 and 1% DMSO. Reactions were incubated RT for 20 hr and terminated with 75 uL of a stopping solution containing 0.5 M EDTA. Samples were analyzed using a LabChip EZ reader (PerkinElmer).

| Compound | IC50 |
| --- | --- |
| Cc1cc(CC(=O)Nc2cc([C@@H]3C[C@H](OC(=O)NC(C)C)CO3)[nH]n2)on1 (single isomer, unassigned) [Example 345] | 100 to 250 nM |
| Cc1cc(CC(=O)Nc2cc([C@H]3C[C@@H](OC(=O)NC(C)C)CO3)[nH]n2)on1 (single isomer, unassigned) [Example 346] | 100 to 250 nM |
| Cc1cc(CC(=O)Nc2cc([C@@H]3CC[C@H](n4cc(C)[nH]c4=O)C3)[nH]n2)on1 (single isomer, unassigned) [Example 349] | 250 to 1000 nM |
| Cc1cc(CC(=O)Nc2cc([C@@H]3CC[C@H](Oc4ccccc4)C3)[nH]n2)on1 (single isomer, unassigned) [Example 350] | 1000 to 100000 nM |
| Cc1cc(CC(=O)Nc2cc([C@H]3CC[C@@H](Oc4ccccc4)C3)[nH]n2)on1 (single isomer, unassigned) [Example 351] | 100 to 250 nM |
| Cc1cc(CC(=O)Nc2cc([C@H]3CC[C@@H](OC(=O)CC(C)C)C3)[nH]n2)on1 (single isomer, unassigned) [Example 352] | ≤ 100 nM |
| Cc1cc(CC(=O)Nc2cc([C@@H]3CC[C@H](OC(=O)CC(C)C)C3)[nH]n2)on1 (single isomer, unassigned) [Example 353] | ≤ 100 nM |
| Cc1ccc(O[C@H]2CC[C@@H](c3cc(NC(=O)Cc4cc(C)no4)n[nH]3)C2)cn1 (single isomer, unassigned) [Example 356] | 250 to 1000 nM |
| Cc1cc(CC(=O)Nc2cc([C@@H]3CC[C@H](Oc4cccnc4C)C3)[nH]n2)on1 (single isomer, unassigned) [Example 358] | 250 to 1000 nM |
| Cc1cc(CC(=O)Nc2cc([C@H]3CC[C@@H](Oc4cccnc4C)C3)[nH]n2)on1 (single isomer, unassigned) [Example 359] | 100 to 250 nM |
| Cc1cc(CC(=O)Nc2cc([C@H]3CC[C@@H](Cc4nncn4C(C)C)C3)[nH]n2)on1 (single isomer, unassigned) [Example 370] | 1000 to 100000 nM |
| Cc1cc(CC(=O)Nc2cc([C@@H]3CC[C@H](Cc4nncn4C(C)C)C3)[nH]n2)on1 (single isomer, unassigned) [Example 371] | 1000 to 100000 nM |
| Cc1cc(CC(=O)Nc2cc([C@@H]3CC[C@@H](Cc4nncn4C(C)C)C3)[nH]n2)on1 (single isomer, unassigned) [Example 372] | 1000 to 100000 nM |
| Cc1cc(CC(=O)Nc2cc([C@H]3CC[C@H](Cc4nncn4C(C)C)C3)[nH]n2)on1 (single isomer, unassigned) [Example 373] | 100 to 250 nM |
| CC(C)NC(=O)O[C@@H]1CC[C@H](c2cc(NC(=O)CN(C)c3ncnc4nc[nH]c34)n[nH]2)C1 (single isomer, unassigned) [Example 374] | 100 to 250 nM |
| CC(C)NC(=O)O[C@H]1CC[C@@H](c2cc(NC(=O)CN(C)c3ncnc4nc[nH]c34)[nH]n2)C1 (single isomer, unassigned) [Example 375] | ≤ 100 nM |
| Cc1cc(CC(=O)Nc2cc([C@@H]3CC[C@@H](O)C3)[nH]n2)on1 (single isomer, unassigned) [Example 376] | 1000 to 100000 nM |

| Compound | IC50 |
| --- | --- |
| Cc1cc(CC(=O)Nc2cc([C@H]3CC[C@H](O)C3)[nH]n2)on1 (single isomer, unassigned) [Example 377] | 1000 to 100000 nM |
| Cc1cc(CC(=O)Nc2cc([C@@H]3CC[C@H](n4cc(C(C)C)[nH]c4=O)C3)[nH]n2)on1 (single isomer, unassigned) [Example 378] | 1000 to 100000 nM |
| Cc1cc(CC(=O)Nc2cc([C@@H]3CC[C@H](Oc4cnccc4C)C3)[nH]n2)on1 (single isomer, unassigned) [Example 379] | 250 to 1000 nM |
| Cc1cc(CC(=O)Nc2cc([C@H]3CC[C@@H](Oc4cnccc4C)C3)[nH]n2)on1 (single isomer, unassigned) [Example 380] | 100 to 250 nM |
| Cc1cc(CC(=O)Nc2cc([C@H]3CC[C@@H](Oc4cnccc4C4CC4)C3)[nH]n2)on1 (single isomer, unassigned) [Example 381] | ≤ 100 nM |
| Cc1cc(CC(=O)Nc2cc([C@@H]3CC[C@H](Oc4cnccc4C4CC4)C3)[nH]n2)on1 (single isomer, unassigned) [Example 382] | 250 to 1000 nM |
| Cc1cc(CC(=O)Nc2cc([C@H]3CC[C@@H](Oc4ccccc4C(C)C)C3)[nH]n2)on1 (single isomer, unassigned) [Example 389] | 250 to 1000 nM |
| Cc1cc(CC(=O)Nc2cc([C@@H]3CC[C@H](Oc4ccccc4C(C)C)C3)[nH]n2)on1 (single isomer, unassigned) [Example 390] | 100 to 250 nM |
| COCc1nc2ccnc(Nc3cc([C@H]4CC[C@@H](OC(=O)NC(C)C)C4)[nH]n3)c2s1 (single isomer, unassigned) [Example 398] | ≤ 100 nM |
| COCc1nc2ccnc(Nc3cc([C@@H]4CC[C@H](OC(=O)NC(C)C)C4)[nH]n3)c2s1 (single isomer, unassigned) [Example 399] | ≤ 100 nM |
| CC(C)NC(=O)O[C@@H]1CC[C@H](c2cc(Nc3ncnc4ncccc34)n[nH]2)C1 (single isomer, unassigned) [Example 400] | ≤ 100 nM |
| CC(C)NC(=O)O[C@H]1CC[C@@H](c2cc(Nc3ncnc4ncccc34)n[nH]2)C1 (single isomer, unassigned) [Example 401] | ≤ 100 nM |
| Cc1cnn(-c2ccnc(Nc3cc([C@H]4CC[C@@H](OC(=O)NC(C)C)C4)[nH]n3)c2)c1 (single isomer, unassigned) [Example 402] | 100 to 250 nM |
| Cc1cnn(-c2ccnc(Nc3cc([C@@H]4CC[C@H](OC(=O)NC(C)C)C4)[nH]n3)c2)c1 (single isomer, unassigned) [Example 403] | 100 to 250 nM |
| c1cc2ncsc2c(Nc2cc([C@H]3CC[C@@H](Oc4nscc4C4CC4)C3)[nH]n2)n1 (single isomer, unassigned) [Example 404] | ≤ 100 nM |
| c1cc2ncsc2c(Nc2cc([C@@H]3CC[C@H](Oc4nscc4C4CC4)C3)[nH]n2)n1 (single isomer, unassigned) [Example 405] | ≤ 100 nM |
| Cc1cc(CC(=O)Nc2cc([C@@H]3CC[C@H](Cc4cn[nH]c4C(C)C)C3)[nH]n2)on1 (single isomer, unassigned) [Example 408] | 250 to 1000 nM |

Further lines, results first:

| IC50 | Compound |
| --- | --- |
| 1000 to 100000 nM | Cc1cncc(O[C@H]2CC[C@@H](c3cc(NC(=O)Cc4cc(C)no4)n[nH]3)C2)c1 (single isomer, unassigned) [Example 354] |
| 250 to 1000 nM | Cc1cncc(O[C@@H]2CC[C@H](c3cc(NC(=O)Cc4cc(C)no4)n[nH]3)C2)c1 (single isomer, unassigned) [Example 355] |
| 1000 to 100000 nM | Cc1ccc(O[C@@H]2CC[C@H](c3cc(NC(=O)Cc4cc(C)no4)n[nH]3)C2)cn1 (single isomer, unassigned) [Example 357] |
| 1000 to 100000 nM | Cc1cc(CC(=O)Nc2cc([C@H]3CC[C@@H](Oc4cncnc4)C3)[nH]n2)on1 (single isomer, unassigned) [Example 362] |
| 250 to 1000 nM | Cc1cc(CC(=O)Nc2cc([C@@H]3CC[C@H](Oc4cncnc4)C3)[nH]n2)on1 (single isomer, unassigned) [Example 363] |
| 1000 to 100000 nM | COCc1cc(C(=O)Nc2cc([C@H]3CC[C@@H](Oc4ccccc4)C3)[nH]n2)n(C)n1 (single isomer, unassigned) [Example 364] |
| 250 to 1000 nM | COCc1cc(C(=O)Nc2cc([C@@H]3CC[C@H](Oc4ccccc4)C3)[nH]n2)n(C)n1 (single isomer, unassigned) [Example 365] |
| 1000 to 100000 nM | COCc1cc(C(=O)Nc2cc([C@H]3CC[C@@H](Oc4cnccc4C)C3)[nH]n2)n(C)n1 (single isomer, unassigned) [Example 366] |
| 100 to 250 nM | COCc1cc(C(=O)Nc2cc([C@@H]3CC[C@H](Oc4cnccc4C)C3)[nH]n2)n(C)n1 (single isomer, unassigned) [Example 367] |
| 1000 to 100000 nM | COCc1cc(C(=O)Nc2cc([C@H]3CC[C@@H](Oc4cncc(C)c4)C3)[nH]n2)n(C)n1 (single isomer, unassigned) [Example 383] |
| 1000 to 100000 nM | COCc1cc(C(=O)Nc2cc([C@@H]3CC[C@H](Oc4cncc(C)c4)C3)[nH]n2)n(C)n1 (single isomer, unassigned) [Example 384] |
| 1000 to 100000 nM | COCc1cc(C(=O)Nc2cc([C@H]3CC[C@@H](Oc4cccnc4C)C3)[nH]n2)n(C)n1 (single isomer, unassigned) [Example 385] |
| 250 to 1000 nM | COCc1cc(C(=O)Nc2cc([C@@H]3CC[C@H](Oc4cccnc4C)C3)[nH]n2)n(C)n1 (single isomer, unassigned) [Example 386] |
| 1000 to 100000 nM | COCc1cc(C(=O)Nc2cc([C@H]3CC[C@@H](Oc4cncnc4)C3)[nH]n2)n(C)n1 (single isomer, unassigned) [Example 387] |
| 1000 to 100000 nM | COCc1cc(C(=O)Nc2cc([C@@H]3CC[C@H](Oc4cncnc4)C3)[nH]n2)n(C)n1 (single isomer, unassigned) [Example 388] |
| ≤ 100 nM | COCc1cc(C(=O)Nc2cc([C@H]3CC[C@@H](Oc4cnccc4C4CC4)C3)[nH]n2)n(C)n1 (single isomer, unassigned) [Example 393] |
| 100 to 250 nM | COCc1cc(C(=O)Nc2cc([C@@H]3CC[C@H](Oc4cnccc4C4CC4)C3)[nH]n2)n(C)n1 (single isomer, unassigned) [Example 394] |
| 1000 to 100000 nM | COCc1cc(C(=O)Nc2cc([C@H]3CC[C@@H](Oc4ccc(C)nc4)C3)[nH]n2)n(C)n1 (single isomer, unassigned) [Example 395] |
| 1000 to 100000 nM | COCc1cc(C(=O)Nc2cc([C@@H]3CC[C@H](Oc4ccc(C)nc4)C3)[nH]n2)n(C)n1 (single isomer, unassigned) [Example 396] |

Source: US20240190855A1 (Relay Therapeutics, Inc., priority 2021, published 2024)
